Test results reported in patent US20210246115A1 (Bioimics AB, priority 2017, published 2021).
Counter-ions that a name gives are not always drawn.

Tests used:
[1] = test system: Escherichia coli (ATCC25922); assay: MIC, broth microdilution (CLSI), Escherichia coli; settings: Escherichia coli, ATCC25922, read-out: E. coli ATCC 25922 MIC, Table XIII
[2] = test system: Staphylococcus aureus (ATCC25923); assay: MIC, broth microdilution (CLSI), Staphylococcus aureus ATCC25923; settings: Staphylococcus aureus, ATCC25923, read-out: S. aureus ATCC 25923 MIC
[3] = test system: E. coli RNase P RNA, M1 RNA; assay: Inhibition of bacterial RNase P activity, IC50 determination (cleavage of pATSerUG by M1 RNA); assay type: biochemical; settings: NI: No inhibition

| Compound | MIC [1] [µg/mL] | MIC [2] [µg/mL] | IC50 [3] [µM] | further results |
| --- | --- | --- | --- | --- |
| Cc1cccc(C(CC(=O)NC2CCNC(=O)C2)c2cn(CC3CCCCC3)c3ccc(Br)cc23)c1 (stereo not drawn) [Compound 296, 3-(5-bromo-1-(cyclohexylmethyl)-1H-indol-3-yl)-N-(2-oxopiperidin-4-yl)-3-(m-tolyl)propanamide hydrochloride salt] | > 512 | > 512 |  |  |
| Cc1cccc(C(CC(=O)N[C@H]2CC[C@@H](N)CC2)c2cn(Cc3ccccc3)c3ccccc23)c1 (stereo partly drawn) [Compound 54, N-((1S,4S)-4-aminocyclohexyl)-3-(1-benzyl-1H-indol-3-yl)-3-(m-tolyl)propanamide hydrochloride salt] |  |  | 100 |  |
| Cc1cccc(C(CC(=O)NC2CCCCC2)c2cn(CC3CCCCC3)c3ccccc23)c1 (stereo not drawn) [Compound 208, N-cyclohexyl-3-(1-(cyclohexylmethyl)-1H-indol-3-yl)-3-(m-tolyl)propanamide] | > 512 | > 512 |  |  |
| O=C(CC(c1cccnc1)c1cn(Cc2ccccc2)c2ccccc12)NCCC1CCNCC1 (stereo not drawn) [Compound 93, 3-(1-benzyl-1H-indol-3-yl)-N-(2-(piperidin-4-yl)ethyl)-3-(pyridin-3-yl) propanamide hydrochloride salt] |  |  | 308 |  |
| Cc1cccc(C(CC(=O)N[C@H]2CC[C@H](O)CC2)c2cn(CC3CCCCC3)c3ccccc23)c1 (stereo partly drawn) [Compound 210, 3-(1-(cyclohexylmethyl)-1H-indol-3-yl)-N-((1R,4R)-4-hydroxycyclohexyl)-3-(m-tolyl)propanamide] | > 512 | > 512 |  |  |
| O=C(CC(c1cscn1)c1cn(Cc2ccccc2)c2ccccc12)NC1CCNCC1 (stereo not drawn) [Compound 96, 3-(1-benzyl-1H-indol-3-yl)-N-(piperidin-4-yl)-3-(thiazol-4-yl) propanamide hydrochloride salt] |  |  | 911 |  |
| O=C(CCc1cn(Cc2ccccc2)c2ccccc12)NC1CCNCC1 [Compound 102, 3-(1-benzyl-1H-indol-3-yl)-N-(piperidin-4-yl)propanamide hydrochloride salt] |  |  | 950 |  |
| CCn1cc(C(CC(=O)NC2CCNCC2)c2cccc(C)c2)c2ccccc21 (stereo not drawn) [Compound 91, 3-(1-ethyl-1H-indol-3-yl)-N-(piperidin-4-yl)-3-(m-tolyl)propanamide hydrochloride salt] |  |  | 1080 |  |
| Cc1cccc(C(CC(=O)NCCN2CCCC2)c2cn(Cc3ccccc3)c3ccccc23)c1.Cl (stereo not drawn) [Compound 3, 3-(1-benzyl-1H-indol-3-yl)-N-(2-(pyrrolidin-1-yl)ethyl)-3-(m-tolyl)propanamide hydrochloride salt] | > 512 | 32 |  |  |
| N[C@H]1CC[C@@H](NC(=O)CC(c2cccnc2)c2cn(Cc3ccccc3)c3ccccc23)CC1 (stereo partly drawn) [Compound 75, N-((1s,4s)-4-aminocyclohexyl)-3-(1-benzyl-1H-indol-3-yl)-3-(pyridin-3-yl)propanamide hydrochloride salt] |  |  | 343 |  |
| O=C(CC(c1cscn1)c1cn(Cc2ccccc2)c2ccccc12)NCCC1CCNCC1 (stereo not drawn) [Compound 95, 3-(1-benzyl-1H-indol-3-yl)-N-(2-(piperidin-4-yl)ethyl)-3-(thiazol-4-yl) propanamide hydrochloride salt] |  |  |  | IC50 ([3]; hydrochloride salt): 1300 µM |
| Cc1cccc(C(CC(=O)NCCC2CCNCC2)c2cn(Cc3ccccc3)c3ncncc23)c1 (stereo not drawn) [Compound 94, 3-(7-benzyl-7H-pyrrolo[2,3-d]pyrimidin-5-yl)-N-(2-(piperidin-4-yl)ethyl)-3-(m-tolyl)propanamide hydrochloride salt] |  |  | 912 |  |
| Cl.Nc1ccc(NC(=O)CCc2cn(CC3CCCCC3)c3ccc(Br)cc23)cn1 [Compound 298, N-(6-aminopyridin-3-yl)-3-(5-bromo-1-(cyclohexylmethyl)-1H-indol-3-yl)propanamide hydrochloride salt] | > 512 | 15 |  |  |
| O=C(CC(c1cscn1)c1cn(Cc2ccccc2)c2ccccc12)NCCC1CCNCC1 (stereo not drawn) [Compound 76, 3-(1-benzyl-1H-indol-3-yl)-N-(2-(piperidin-4-yl)ethyl)-3-(thiazol-4-yl) propanamide hydrochloride salt] |  |  |  | IC50 ([3]; hydrochloride salt): 197 µM |
| COc1ccccc1-c1ccc2c(c1)c(C(CC(=O)N[C@H]1CC[C@H](N)CC1)c1cccc(C)c1)cn2CC1CCCCC1.Cl (stereo partly drawn) [Compound 219] | > 512 | 10 |  |  |
| COc1ccccc1-c1ccc2c(c1)c(C(CC(=O)N[C@H]1CC[C@H](N)CC1)c1cccc(C)c1)cn2CC1CCCCC1.Cl (stereo partly drawn) [Compound 219, hydrochloride salt] |  |  | 7 |  |

Further lines, with some results ahead:

| MIC [1] [µg/mL] | MIC [2] [µg/mL] | IC50 [3] [µM] | Compound | further results |
| --- | --- | --- | --- | --- |
| 289 | 9 |  | Cl.NC1CCC(NC(=O)Cc2cn(CC3CCCCC3)c3ccc(-c4cccc(OC(F)(F)F)c4)cc23)CC1 [Compound 240, N-((1S,4S)-4-aminocyclohexyl)-2-(1-(cyclohexylmethyl)-5-(3-(trifluoromethoxy)phenyl)-1H-indol-3-yl)acetamide hydrochloride salt] |  |
| 64 | 64 |  | Cl.N[C@H]1CC[C@H](NC(=O)CC(c2ccccc2)c2cn(CC3CCCCC3)c3ccccc23)CC1 (stereo partly drawn) [Compound 130, N-((1R,4R)-4-aminocyclohexyl)-3-(1-(cyclohexylmethyl)-1H-indol-3-yl)-3-phenylpropanamide hydrochloride salt] |  |
| > 512 | > 512 |  | Cc1cccc(C(CC(=O)Nc2ccc(N3CCCCC3)cc2)c2cn(CC3CCCCC3)c3ccccc23)c1.Cl (stereo not drawn) [Compound 158, 3-(1-(cyclohexylmethyl)-1H-indol-3-yl)-N-(4-(piperidin-1-yl)phenyl)-3-(m-tolyl)propanamide hydrochloride salt] |  |
|  |  | 140 | O=C(CC(c1cn(Cc2ccccc2)c2ccccc12)C1CCNCC1)NCCC1CCNCC1 (stereo not drawn) [Compound 77, 3-(1-benzyl-1H-indol-3-yl)-3-(piperidin-4-yl)-N-(2-(piperidin-4-yl)ethyl)propanamide hydrochloride salt] |  |
|  |  | 129 | Cc1cccc(C(CC(=O)NCC2CCNCC2)c2cn(Cc3ccccc3)c3ccccc23)c1 (stereo not drawn) [Compound 79, 3-(1-benzyl-1H-indol-3-yl)-N-(piperidin-4-ylmethyl)-3-(m-tolyl)propanamide hydrochloride salt] |  |
|  |  | 269 | Cc1cccc(C(CC(=O)NC2CCNCC2)c2cn(CC3CCCCC3)c3cccnc23)c1 (stereo not drawn) [Compound 98, 3-(1-(cyclohexylmethyl)-1H-pyrrolo[3,2-b]pyridin-3-yl)-N-(piperidin-4-yl)-3-(m-tolyl)propanamide hydrochloride salt] |  |
|  |  | 842 | O=C(CCc1cn(Cc2ccccc2)c2ccccc12)NCCC1CCNCC1 [Compound 88, 3-(1-benzyl-1H-indol-3-yl)-N-(2-(piperidin-4-yl)ethyl)propanamide hydrochloride salt] |  |
|  |  | 950 | Cc1cccc(C(CC(=O)NC2CCNCC2)c2cn(Cc3ccccc3)c3cnccc23)c1 (stereo not drawn) [Compound 90, 3-(1-benzyl-1H-pyrrolo[2,3-c]pyridin-3-yl)-N-(piperidin-4-yl)-3-(m-tolyl)propanamide hydrochloride salt] |  |
| > 512 | > 512 |  | Cc1cccc(C(CC(=O)Nc2ccc(N3CCNCC3)cc2)c2cn(CC3CCCCC3)c3ccccc23)c1.Cl (stereo not drawn) [Compound 155, 3-(1-(cyclohexylmethyl)-1H-indol-3-yl)-N-(4-(piperazin-1-yl)phenyl)-3-(m-tolyl)propanamide hydrochloride salt] |  |
|  |  | 22 | Cl.Cl.N[C@H]1CC[C@H](NCCC(c2cn(C3CCCCC3)c3ccccc23)C2CCCCC2)CC1 (stereo partly drawn) [Compound 378, ((1R,4R)-N1-(3-cyclohexyl-3-(1-cyclohexyl-1H-indol-3-yl)propyl)cyclohexane-1,4-diamine salt] |  |
